Experimental data as given in paper PMC3817062, “N-Alkylated Aminoacyl sulfamoyladenosines as Potential Inhibitors of Aminoacylation Reactions and Microcin C Analogues Containing D-Amino Acids” (PLoS ONE, 2013).
Non-standard residues stand in square brackets, D forms with d. Residues, ends and D or L forms follow the SMILES beside them. *: point of attachment. AspNHSO2(5'-O-Ado) = Nc1ncnc2c1ncn2[C@@H]1O[C@H](COS(=O)(=O)NC(=O)[C@H](CC(=O)O)N*)[C@@H](O)[C@H]1O; X1 = Nc1ncnc2c1ncn2[C@@H]1O[C@H](COS(=O)(=O)NC(=O)[C@@H](CC(=O)O)N*)[C@@H](O)[C@H]1O; For = O=C*

Tests used:
AlaRS [1] = molecular target: T1, AlaRS (Escherichia coli, UniProt P00957); conditions: positive control, previously shown; cited from earlier work
T1 construct: endogenous in cells; host or cells: E. coli wild-type S30 cell extract
Procedure: (§1) All experiments were performed in triplicate.

GlyRS [2] = molecular target: T2, GlyRS (Escherichia coli, UniProt P00960); conditions: positive control, previously shown; cited from earlier work
ProRS [3] = molecular target: T3, ProRS (Escherichia coli, UniProt P16659); conditions: positive control, previously shown; cited from earlier work
T3 construct: endogenous in cells; host or cells: E. coli wild-type S30 cell extract
Procedure: as §1

LeuRS = molecular target: T4, LeuRS (Escherichia coli, UniProt P07813); assay: In vitro tRNA aminoacylation in S30 cell extract, LeuRS; type: biochemical, E. coli; conditions: 50 µM, wild-type cell extract, triplicate; Figure 3
T4 construct: endogenous in cells; host or cells: E. coli wild-type S30 cell extract
Procedure: (§2) The growth inhibitory properties for all new compounds were determined by measuring the optical density reached by cultures of McC-sensitive E. coli in wells of microtiter plates in the presence of various concentrations of the respective inhibitors. As shown earlier, the intracellular target of McC analogs is determined by the C-terminal amino acid, which remains attached onto the sulfamoyladenosine following intracellular metabolism. To facilitate activity evaluation and the mechanism of action studies of newly synthesized compounds, an E. coli tester strain Ara-Yej (BW39758) was used, where the yejABEF operon is under control of the arabinose-inducible araBAD promoter. […] In addition to the Ara-Yej strain, E. coli lacking rim genes (and therefore hypersensitive to McC) was used as a tester strain. […] In in vitro aminoacylation experiments, compound 3 was tested for its potential to inhibit ProRS, GlyRS and AlaRS and compound 2 was tested for its ability to inhibit LeuRS in a wild-type cell extract. Established inhibitors of these enzymes are the respective 5’-O-[N-[L-aminoacyl]-sulfamoyl]adenosines: Pro-SA, Gly-SA, Ala-SA and Leu-SA [2-4]. […]
(§3) 1 μL of solution containing inhibitor, 3 μL of E. coli S30 extracts was added. […] Following the addition of scintillation liquid, the amount of radioactivity was determined in a scintillation counter.

McC-sensitive E. coli = assay: Whole cell activity determination (OD600), all cells tested; type: cell-based; conditions: all cells tested (Ara-Yej strain, E. coli lacking rim genes); OD600 after 8 h, 37 °C, LB; data not shown
AlaRS [4] = molecular target: T1, AlaRS; assay: In vitro tRNA aminoacylation in S30 cell extract, AlaRS; type: biochemical, E. coli; conditions: 50 µM, wild-type cell extract, triplicate; Figure 3
Procedure: as §2, §3

ProRS [5] = molecular target: T3, ProRS; assay: In vitro tRNA aminoacylation in S30 cell extract, ProRS; type: biochemical, E. coli; conditions: 50 µM, wild-type cell extract, triplicate; Figure 3
Procedure: as §2, §3

GlyRS [6] = molecular target: T2, GlyRS; assay: In vitro tRNA aminoacylation in S30 cell extract, GlyRS; type: biochemical, E. coli; set-up: endogenous in cells; host or cells: E. coli wild-type S30 cell extract; conditions: 50 µM, wild-type cell extract, triplicate; Figure 3
Procedure: as §2, §3

[7] = system: peptidases PepA, PepB and PepN; assay: Metabolism (processing) of the peptide chain by peptidases, release of the active moiety; type: in vitro ADME; conditions: E. coli S30 cell extracts; concluded from aminoacylation inhibition experiments
From the text: This is a somewhat expected result as it has frequently been shown that the introduction of (D)-amino acids can prevent the hydrolysis by peptidases.
Compounds 5-7 were especially designed to circumvent this problem; all three compounds contain L-amino acids at the sixth and seventh position, allowing endopeptidases to cleave between these two L-amino acids, resulting in release of the active moiety. […] Also the modification in compound 6, inspired by albomycin whereby pepN hydrolyzes the peptide bond between a serine and a modified amino acid carrying an acidic side chain [22], could not rescue the activity. […] Whether or not incorporation of (D)-amino acids in the transport peptide part interferes with uptake of the McC derivatives by the YejABEF transporter is less relevant here, as in vitro tests already show lack of activity. Additional reduced uptake of the analogues 4-7 however cannot be excluded.
Cells were grown in 50 mL LB-medium. After centrifuging at 3000 × g for 10 min. the supernatant was discarded and the pellet was resuspended in 40 mL buffer containing: Tris.HCl or Hepes.KOH (pH = 8.0) (20 mM), MgCl2 (10 mM), KCl (100 mM). […]
as §3

AspRS = molecular target: T5, AspRS (Escherichia coli, UniProt P21889); assay: In vitro tRNA aminoacylation in S30 cell extracts, AspRS; type: biochemical, E. coli; conditions: for inhibition of AspRS in vitro: aminoacylation in cell extracts, compound needs no metabolism
T5 construct: endogenous in cells; host or cells: S30 extracts of E. coli ΔrimL, ΔpepABN and Δdtd cells
Procedure: Figure 5 Aminoacylation experiments of the McC analogues containing (D)-amino acids at 50 µM. Upper panel: 30 min incubation with a cell extract deficient of RimL. Middle panel: 30 min incubation with a cell extract deficient of PepA, PepB and PepN. Lower panel: Comparison of two McC analogues targeting AspRS, compound 8 having a C-terminal D-configuration, compound 1f having a C-terminal (L)-configuration. Incubation was done with two different cell extracts, lacking either DTD or RimL.
To investigate whether compound 8 would be more resistant than compound 1f to MccF-catalyzed hydrolysis and/or MccE/RimL-catalyzed acetylation, and to investigate a possible role of DTD, a time-course of tRNA^Asp aminoacylation inhibition was followed in two different cell extracts, one prepared from cells lacking Rim proteins, and another from cells lacking DTD. From Figure 5 (lower panel) it can be observed that at time point zero, i.e., immediately after addition of the compounds, there was no inhibition since the compounds were still unmetabolized. […] Upon further incubation, the reaction recovered from inhibition for both compounds. For compound 8 this effect was more pronounced than for compound 1f, especially in cell extracts prepared from cells lacking DTD proteins.
To assess the degree of inhibition of the aminoacylation reaction, in vitro tests were performed using the relevant S30 cell extracts.
Cells were grown in 50 mL LB-medium. After centrifuging at 3000 × g for 10 min. the supernatant was discarded and the pellet was resuspended in 40 mL buffer containing: Tris.HCl or Hepes.KOH (pH = 8.0) (20 mM), MgCl2 (10 mM), KCl (100 mM). The cell-suspension was centrifuged again at 4800 rpm. This procedure was repeated 2 times. The pellet was resuspended in 1 mL of the following buffer Tris.HCl or Hepes.KOH (pH = 8.0) (20 mM), MgCl2 (10 mM), KCl (100 mM), DTT (1 mM) and kept at 0 °C. Subsequently, the cells were sonicated for 10 sec. and left at 0 °C for 10 min. This procedure was repeated for 5-8 times. The lysate was centrifuged at 15000 g for 30 min at +4 °C.
1 μL of solution containing inhibitor, 3 μL of E. coli S30 extracts was added. Next, 16 μL of the following aminoacylation mixture was added: Tris.HCl (30mM, pH 8.0), DTT (1 mM), bulk of E. coli tRNA (5 g/l), ATP (3 mM), KCl (30 mM), MgCl2 (8 mM), and the specified, radio labeled amino acid (40 μM). The reaction products were precipitated in cold 10% TCA on Whatman 3MM papers, 5 min. after the aminoacylation mixture was added. The aminoacylation reaction was carried out at room temperature. Depending on whether or not processing was needed, variable time intervals were included between the addition of the cell-extract and the addition of the aminoacylation mixture. After thorough washing with cold 10% TCA, the papers were washed twice with acetone and dried on a heating plate. Following the addition of scintillation liquid, the amount of radioactivity was determined in a scintillation counter.

[8] = time course, extract from cells lacking DTD, at 15 min

T5 sequence (P21889 whole entry): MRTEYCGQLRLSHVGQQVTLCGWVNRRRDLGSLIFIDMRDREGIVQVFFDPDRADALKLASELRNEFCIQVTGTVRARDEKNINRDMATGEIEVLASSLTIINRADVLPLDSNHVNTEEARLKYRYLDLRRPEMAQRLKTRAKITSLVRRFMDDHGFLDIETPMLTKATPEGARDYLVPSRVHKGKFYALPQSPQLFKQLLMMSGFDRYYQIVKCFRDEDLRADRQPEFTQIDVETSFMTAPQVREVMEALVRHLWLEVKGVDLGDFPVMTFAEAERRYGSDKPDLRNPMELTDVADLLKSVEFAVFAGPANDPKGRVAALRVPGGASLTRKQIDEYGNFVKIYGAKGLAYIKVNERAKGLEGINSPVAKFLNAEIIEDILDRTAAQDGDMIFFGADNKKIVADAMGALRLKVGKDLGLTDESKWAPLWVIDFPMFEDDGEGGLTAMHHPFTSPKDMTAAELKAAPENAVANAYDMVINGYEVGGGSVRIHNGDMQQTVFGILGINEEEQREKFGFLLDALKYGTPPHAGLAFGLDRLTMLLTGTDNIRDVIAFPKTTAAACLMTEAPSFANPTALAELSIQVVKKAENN
T2 sequence (P00961 2-689): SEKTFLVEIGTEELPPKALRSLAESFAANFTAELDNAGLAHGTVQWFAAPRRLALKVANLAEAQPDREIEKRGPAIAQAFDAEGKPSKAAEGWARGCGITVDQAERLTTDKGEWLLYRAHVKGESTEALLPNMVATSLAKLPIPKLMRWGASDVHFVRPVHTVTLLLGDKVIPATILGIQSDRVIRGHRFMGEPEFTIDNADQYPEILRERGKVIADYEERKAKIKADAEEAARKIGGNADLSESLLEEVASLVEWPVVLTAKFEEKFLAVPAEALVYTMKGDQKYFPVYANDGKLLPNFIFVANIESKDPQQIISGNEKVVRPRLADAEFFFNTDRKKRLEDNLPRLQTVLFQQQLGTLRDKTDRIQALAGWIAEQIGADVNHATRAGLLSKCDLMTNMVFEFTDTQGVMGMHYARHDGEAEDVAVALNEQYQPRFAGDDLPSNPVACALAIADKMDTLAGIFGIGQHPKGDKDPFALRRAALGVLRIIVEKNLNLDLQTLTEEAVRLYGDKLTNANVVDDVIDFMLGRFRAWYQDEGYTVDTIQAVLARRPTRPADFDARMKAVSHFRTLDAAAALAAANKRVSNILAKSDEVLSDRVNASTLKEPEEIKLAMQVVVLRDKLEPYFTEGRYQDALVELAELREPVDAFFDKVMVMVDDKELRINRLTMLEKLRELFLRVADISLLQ
T2 sequence (P00960 whole entry): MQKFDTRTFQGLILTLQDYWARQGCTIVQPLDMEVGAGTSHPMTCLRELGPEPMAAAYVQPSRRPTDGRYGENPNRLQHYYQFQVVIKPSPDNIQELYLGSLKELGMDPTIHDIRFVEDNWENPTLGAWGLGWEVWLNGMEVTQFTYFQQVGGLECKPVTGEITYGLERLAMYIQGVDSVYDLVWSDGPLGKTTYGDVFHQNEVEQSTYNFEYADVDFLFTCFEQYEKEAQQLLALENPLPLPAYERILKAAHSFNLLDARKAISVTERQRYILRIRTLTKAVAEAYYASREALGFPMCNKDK
T3 sequence (P16659 whole entry): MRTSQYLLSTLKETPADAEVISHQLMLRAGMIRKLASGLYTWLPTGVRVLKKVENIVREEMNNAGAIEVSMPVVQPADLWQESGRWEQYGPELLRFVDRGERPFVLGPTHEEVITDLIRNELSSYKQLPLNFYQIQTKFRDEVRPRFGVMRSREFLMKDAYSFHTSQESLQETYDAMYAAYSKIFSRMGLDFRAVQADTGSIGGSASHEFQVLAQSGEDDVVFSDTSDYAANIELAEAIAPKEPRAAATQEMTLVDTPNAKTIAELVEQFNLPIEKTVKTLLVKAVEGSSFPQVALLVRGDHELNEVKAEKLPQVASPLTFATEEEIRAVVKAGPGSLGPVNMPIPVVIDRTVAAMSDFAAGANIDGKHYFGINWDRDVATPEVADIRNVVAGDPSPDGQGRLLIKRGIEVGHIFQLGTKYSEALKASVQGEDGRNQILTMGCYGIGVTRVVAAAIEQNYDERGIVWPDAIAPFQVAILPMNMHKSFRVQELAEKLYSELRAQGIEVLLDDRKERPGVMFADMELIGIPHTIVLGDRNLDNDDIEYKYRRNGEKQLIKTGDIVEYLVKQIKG
T1 sequence (P00957 whole entry): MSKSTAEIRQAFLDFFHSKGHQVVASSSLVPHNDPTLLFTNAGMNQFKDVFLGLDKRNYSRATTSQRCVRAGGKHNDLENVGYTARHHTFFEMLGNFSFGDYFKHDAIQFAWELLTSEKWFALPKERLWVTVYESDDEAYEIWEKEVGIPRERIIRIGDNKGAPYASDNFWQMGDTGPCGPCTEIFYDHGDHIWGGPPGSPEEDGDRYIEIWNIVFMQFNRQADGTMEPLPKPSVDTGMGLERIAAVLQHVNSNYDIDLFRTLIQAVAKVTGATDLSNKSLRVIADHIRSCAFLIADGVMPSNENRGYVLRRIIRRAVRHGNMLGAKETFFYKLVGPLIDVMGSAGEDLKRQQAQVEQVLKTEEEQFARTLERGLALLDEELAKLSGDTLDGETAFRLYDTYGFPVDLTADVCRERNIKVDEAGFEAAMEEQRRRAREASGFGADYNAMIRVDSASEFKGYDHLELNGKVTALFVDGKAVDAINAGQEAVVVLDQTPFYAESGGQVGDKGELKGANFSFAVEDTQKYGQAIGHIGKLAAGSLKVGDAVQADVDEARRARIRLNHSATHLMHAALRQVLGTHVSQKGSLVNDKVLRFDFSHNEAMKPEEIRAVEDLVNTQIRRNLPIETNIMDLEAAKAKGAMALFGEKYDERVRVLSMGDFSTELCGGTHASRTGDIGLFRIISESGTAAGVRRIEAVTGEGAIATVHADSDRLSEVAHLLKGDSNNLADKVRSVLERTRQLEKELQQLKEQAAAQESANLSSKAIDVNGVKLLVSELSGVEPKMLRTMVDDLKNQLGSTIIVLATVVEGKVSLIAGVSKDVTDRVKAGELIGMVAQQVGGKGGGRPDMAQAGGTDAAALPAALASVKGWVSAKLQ
T4 sequence (P07813 whole entry): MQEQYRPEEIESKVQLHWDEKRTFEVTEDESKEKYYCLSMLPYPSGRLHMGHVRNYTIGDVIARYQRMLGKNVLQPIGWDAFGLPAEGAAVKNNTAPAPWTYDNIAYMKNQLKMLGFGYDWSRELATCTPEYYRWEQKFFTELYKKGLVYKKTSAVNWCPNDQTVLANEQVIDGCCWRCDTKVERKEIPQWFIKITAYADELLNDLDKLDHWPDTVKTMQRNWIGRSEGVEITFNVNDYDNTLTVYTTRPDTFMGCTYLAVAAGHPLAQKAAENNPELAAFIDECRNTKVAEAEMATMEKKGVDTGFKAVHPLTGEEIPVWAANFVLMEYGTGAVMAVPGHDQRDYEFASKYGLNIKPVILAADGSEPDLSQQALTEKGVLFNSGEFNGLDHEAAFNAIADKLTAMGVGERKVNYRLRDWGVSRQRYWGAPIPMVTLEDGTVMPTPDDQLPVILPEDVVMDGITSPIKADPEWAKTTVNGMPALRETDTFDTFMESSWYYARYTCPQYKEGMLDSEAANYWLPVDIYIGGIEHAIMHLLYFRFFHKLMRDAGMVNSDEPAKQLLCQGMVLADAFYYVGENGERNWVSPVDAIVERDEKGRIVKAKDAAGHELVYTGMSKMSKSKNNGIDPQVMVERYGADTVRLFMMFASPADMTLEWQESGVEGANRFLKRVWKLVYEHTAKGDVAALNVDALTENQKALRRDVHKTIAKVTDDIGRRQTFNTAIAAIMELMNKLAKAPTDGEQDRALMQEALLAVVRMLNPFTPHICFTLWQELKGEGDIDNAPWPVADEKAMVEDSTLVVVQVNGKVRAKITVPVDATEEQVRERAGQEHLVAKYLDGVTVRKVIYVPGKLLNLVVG

In the case of `C[C@H](N)C(=O)NS(=O)(=O)OC[C@H]1O[C@@H](n2cnc3c(N)ncnc32)[C@H](O)[C@@H]1O` [Ala-SA], the “inhibition of AlaRS” value (AlaRS [1]) is listed as “potent inhibitors”.
For `NCC(=O)NS(=O)(=O)OC[C@H]1O[C@@H](n2cnc3c(N)ncnc32)[C@H](O)[C@@H]1O` [Gly-SA], the “inhibition of GlyRS” value (GlyRS [2]) is listed as “potent inhibitors”.
For `Nc1ncnc2c1ncn2[C@@H]1O[C@H](COS(=O)(=O)NC(=O)[C@@H]2CCCN2)[C@@H](O)[C@H]1O` [Pro-SA, 5’-O-[N-[(L)-prolyl]-sulfamoyl]adenosine], the “inhibition of ProRS” value (ProRS [3]) is listed as “potent inhibitors”.
In the case of `CN[C@@H](CC(C)C)C(=O)NS(=O)(=O)OC[C@H]1O[C@@H](n2cnc3c(N)ncnc32)[C@H](O)[C@@H]1O` [compound 2, 5’-O-[N-[(L)-N-methyl-leucyl]-sulfamoyl]adenosine], the “inhibition of LeuRS aminoacylation” value (LeuRS) is reported as “inactive” and the “whole-cell activity (growth inhibition)” value (McC-sensitive E. coli) is reported as “inactive”.
For `CNCC(=O)NS(=O)(=O)OC[C@H]1O[C@@H](n2cnc3c(N)ncnc32)[C@H](O)[C@@H]1O` [compound 3, sarcosyl-sulfamoyladenosine], the “inhibition of AlaRS aminoacylation” value (AlaRS [4]) was “could not be targeted”, the “whole-cell activity (growth inhibition)” value (McC-sensitive E. coli) was “inactive” and the “inhibition of ProRS aminoacylation” value (ProRS [5]) was “does not show any major inhibitory binding affinity”. For the same compound, the “inhibition of GlyRS aminoacylation” value (GlyRS [6]) was “could not be targeted”.
With `CSCC[C@H](NC=O)C(=O)N[C@H](CCCNC(=N)N)C(=O)N[C@@H](C(=O)NCC(=O)N[C@H](CC(N)=O)C(=O)N[C@H](C)C(=O)N[C@@H](CC(=O)O)C(=O)NS(=O)(=O)OC[C@H]1O[C@@H](n2cnc3c(N)ncnc32)[C@H](O)[C@@H]1O)[C@H](C)O` [compound 4] (For-M[dR][dT]G[dN][dA]-{AspNHSO2(5'-O-Ado)}) the “metabolism by the peptidases (release of the active moiety)” value [7] was “not capable of hydrolyzing”.
In the case of `CSCC[C@H](NC=O)C(=O)N[C@@H](CCCNC(=N)N)C(=O)N[C@H](C(=O)NCC(=O)N[C@@H](CC(N)=O)C(=O)N[C@@H](C)C(=O)N[C@H](CC(=O)O)C(=O)NS(=O)(=O)OC[C@H]1O[C@@H](n2cnc3c(N)ncnc32)[C@H](O)[C@@H]1O)[C@@H](C)O` [compound 8] (For-MRTGNA-X1), the “reduction of esterification of Asp-C14 to tRNAAsp” value (AspRS; time course, extract from cells lacking DTD, after 60 min) is reported as 44%, the “incorporation of Asp-C14 into tRNAAsp” value (AspRS; [8]) is reported as 11% and the “inhibition of tRNAAsp aminoacylation” value (AspRS; [8]) is reported as 89%. For the same compound, the “metabolism by the peptidases (release of the active moiety)” value [7] was “can metabolize”.
For `Nc1ncnc2c1ncn2[C@@H]1O[C@H](COS(=O)(=O)NC(=O)[C@H](N)CC(=O)O)[C@@H](O)[C@H]1O` [compound 9, (D)-aspartyl-sulfamoyladenosine], the “inhibition of AspRS in vitro” value (AspRS) was “can also inhibit AspRS” and the “inhibition of AspRS in vitro” value (AspRS; listed as (D)-D-SA) was “equally inhibitory”.
In the case of `Nc1ncnc2c1ncn2[C@@H]1O[C@H](COS(=O)(=O)NC(=O)[C@@H](N)CC(=O)O)[C@@H](O)[C@H]1O` [compound 10, (L)-aspartyl-sulfamoyladenosine, reference compound], the “inhibition of AspRS in vitro” value (AspRS) is reported as “equally inhibitory”.
